According to paper PMC5340007 (BMC Cancer, 2017):

Tests used:
[1] = Plasma pharmacokinetics, each drug alone and in combination; settings: selumetinib + dacarbazine arm
From the text: When more than one maximum occurred, the reported value was assigned to the first occurrence.

[2] = Dose-limiting toxicity and maximum tolerated dose, phase I dose escalation; format: in vivo, human (patients with advanced solid tumors)
From the text: Dose-limiting toxicities (DLTs) in the study were defined as those related to treatment and occurring within the first 28 days of therapy. Hematologic DLTs were defined as afebrile grade 4 neutropenia for >5 days, grade 4 neutropenia associated with fever, or grade 4 thrombocytopenia. Non-hematological DLTs were defined as any ≥ grade 3 adverse event (AE) for >7 days that could not be controlled to grade ≤2 with appropriate treatment.
In part B (dose expansion) of the study, an additional 12 evaluable patients received treatment at the combination MTDs.

[3] = cited from earlier work

Row | Compound | AUC(0–8) ([1]; plasma, dosed in combination, selumetinib 75 mg (N = 15), geometric mean (% CV)) | MTD of selumetinib ([2]; in combination with dacarbazine 1000 mg/m^2 every 21 days) | MTD of selumetinib ([2]; in combination with docetaxel 75 mg/m^2 every 21 days) | MTD of selumetinib ([2]; plus docetaxel with ppG-CSF, defined in part A) | recommended phase II dose of selumetinib ([2]; plus docetaxel without ppG-CSF) | MTD of selumetinib ([2]; with docetaxel 75 mg/m^2 without ppG-CSF) | recommended dose for selumetinib monotherapy ([3]; monotherapy) | monotherapy MTD ([3]; selumetinib monotherapy) | Pharmacokinetic parameters administered alone vs in combination [1] | Plasma concentration-time profiles administered alone vs in combination [1]
1 | Cn1cnc2c(F)c(Nc3ccc(Br)cc3Cl)c(C(=O)NOCCO)cc21 [Selumetinib] | 4544 (45.42) ng•h/mL | 75 mg BID | 75 mg BID | 75 mg BID | 75 mg BID | 75 mg BID | 75 mg twice daily (BID) | 75 mg BID | – | –
2 | CN(C)/N=N/c1[nH]cnc1C(N)=O [Dacarbazine] | – | – | – | – | – | – | – | – | similar | similar
